The source made the active and inactive calls.
Tests used:
[1] = target: T1, Voltage-gated N-type calcium channel alpha-1B subunit/Amyloid beta A4 precursor protein-binding family A member 1 (Homo sapiens, UniProt Q00975+Q02410); type: protein assay
[2] = target: T1, Voltage-gated N-type calcium channel alpha-1B subunit/Amyloid beta A4 precursor protein-binding family A member 1; type: protein assay; remark: listed apart in the source
[3] = bead-based luminescence quenchers, dual-tagged ARNT – biochemical, AlphaScreen, cherry-pick, artefact control for ARNT-TACC3 interaction inhibitor project, dose response (AID 651705); type: functional;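 also: AlphaScreen bead proximity signal that flags compounds interfering with the detection technology; potency reflects signal decrease which marks the compound as an assay artifact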
[4] = target: T2, Kappa-type opioid receptor (Homo sapiens, UniProt P41145); type: functional
[5] = target: T3, Delta-type opioid receptor (Homo sapiens, UniProt P41143); assay: HTS Image-Based Screen for Agonists of the DOR Receptor. [Related pubchem assays (depositor defined):AID1777, AID1786, AID2133]; type: functional
Mu-type opioid receptor = Mu-type opioid receptor (Homo sapiens, UniProt P35372); assay: HTS Image-Based Screen for Agonists of the MOR Receptor. [Related pubchem assays (depositor defined):AID1777, AID1785, AID1786, AID2133]; type: functional;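 also: imaging of beta-arrestin GFP recruitment into spots after receptor activation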
[6] = target: T3, Delta-type opioid receptor; assay: HTS Image-Based Screen for Antagonists of the DOR Receptor. [Related pubchem assays (depositor defined):AID1777, AID1785, AID1786, AID2133]; type: functional
[7] = fluconazole-exposed Candida albicans growth modulators – fluorescence, retest, confirmation (AID 2467); type: functional, cell-based
Beta-galactosidase = Beta-galactosidase (Escherichia coli, UniProt Q8VNN2); type: functional
[8] = NIH3T3 cell viability loss – ATP luminescence, mouse fibroblasts, counter-screen, dose response (AID 2010); type: functional, cell-based;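 also: cells exposed to compound for about 90 hours before reading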
[9] = NIH-3T3 fibroblast cytotoxicity, dose response, cytotoxicity control, cell-based, fluorescence, Alamar Blue, secondary assay (AID 2327); type: functional;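 also: NIH-3T3 mouse fibroblasts cultured with fluconazole at 8 µg/mL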
[10] = Trypanosoma cruzi growth suppression in host cells – NIH3T3 host cells, beta-gal luminescence, confirmation (AID 2044); type: functional, cell-based;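 also: intracellular parasites grown in NIH/3T3 mouse fibroblasts as host cells; luminescent beta-galactosidase reporter signal from transgenic T. cruzi replicating inside host cells; inhibitors lower the luminescence signal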
[11] = target: T2, Kappa-type opioid receptor; type: functional; remark: listed apart in the source
SUMO-activating enzyme = SUMO-activating enzyme (Homo sapiens, UniProt Q9UBT2); assay: blockers of UBC9-mediated SUMO conjugation – biochemical, AlphaScreen, SUMOylation inhibitor project, confirmation (AID 2018); type: functional
[12] = viability loss in THP-1 monocytes – THP-1 cells, cytotoxicity control for Vif-APOBEC3G degradation inhibitor project, dose response (AID 1117359); type: functional; details: THP-1
[13] = target: T4, Hepatocyte nuclear factor 4-alpha (Homo sapiens, UniProt P41235); type: functional, cell-based;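 also: biochemical luminescence-based dose-response counterscreen measuring inhibition of HNF4 dimerization, run alongside a screen for blockers of ABHD5–perilipin-5 interaction; split luciferase complementation of HNF4 fusion proteins in cell lysate measuring dimerization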
T4 sequence (P41235 whole entry): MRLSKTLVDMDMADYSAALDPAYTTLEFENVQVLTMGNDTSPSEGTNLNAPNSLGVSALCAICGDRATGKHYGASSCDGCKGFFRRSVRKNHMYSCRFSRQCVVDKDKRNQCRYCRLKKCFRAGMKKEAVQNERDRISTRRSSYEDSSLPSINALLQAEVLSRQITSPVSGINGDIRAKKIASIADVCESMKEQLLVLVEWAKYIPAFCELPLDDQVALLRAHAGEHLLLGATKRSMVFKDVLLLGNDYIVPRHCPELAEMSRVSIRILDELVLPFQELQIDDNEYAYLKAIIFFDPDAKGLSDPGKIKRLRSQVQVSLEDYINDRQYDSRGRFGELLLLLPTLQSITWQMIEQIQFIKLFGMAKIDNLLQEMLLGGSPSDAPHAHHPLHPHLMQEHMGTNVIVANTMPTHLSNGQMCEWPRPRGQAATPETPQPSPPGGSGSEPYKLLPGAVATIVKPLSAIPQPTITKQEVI

[14] = target: T5, Calpain-2 catalytic subunit (Sus scrofa, UniProt P43367); assay: m-calpain protease blockers, concentration series – biochemical, fluorogenic peptide substrate, dose response (AID 1420); type: functional
T5 sequence (P43367 whole entry): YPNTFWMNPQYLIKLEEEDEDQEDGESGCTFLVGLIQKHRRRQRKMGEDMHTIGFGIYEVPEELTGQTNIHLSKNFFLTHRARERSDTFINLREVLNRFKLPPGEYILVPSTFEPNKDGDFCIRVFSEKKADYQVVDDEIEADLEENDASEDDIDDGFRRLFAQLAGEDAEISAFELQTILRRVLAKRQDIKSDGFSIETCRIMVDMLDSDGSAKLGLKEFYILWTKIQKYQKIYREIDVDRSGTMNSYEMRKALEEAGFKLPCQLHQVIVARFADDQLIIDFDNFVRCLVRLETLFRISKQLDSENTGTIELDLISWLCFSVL

[15] = target: Lysine-specific demethylase 4C (Homo sapiens, UniProt Q9H3R0); assay: inhibition of JMJD2C H3K9me3 demethylation – biochemical, DELFIA europium, cherry-picked samples, dose response (AID 488835); type: functional
[16] = target: Alkaline phosphatase, placental type (Homo sapiens, UniProt P05187); assay: human placental alkaline phosphatase inhibition – biochemical, luminescence, confirmation (AID 1512); type: functional
Trypsin = Trypsin (Sus scrofa, UniProt P00761); assay: trypsin protease activity blockade – biochemical, quenched peptide fluorescence, cherry-pick, selectivity assay for Rce1 protease inhibitor project, dose response (AID 488789)
H9c2 = assay: cells; type: functional, cell-based; details: Rattus norvegicus, H9c2, Myocardium;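 also: confirmatory concentration-response retest of ultra-high-throughput screening hits for modulation of myocardial damage; cell death induced by hydrogen peroxide oxidative stress; compound pretreatment for 60 min then peroxide exposure for 2 h; potency is for protecting the cells against peroxide damage rather than for killing them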
CAAX prenyl protease 2 = target: T6, CAAX prenyl protease 2 (Saccharomyces cerevisiae S288c, UniProt Q03530); type: biochemical
T6 sequence (Q03530 whole entry): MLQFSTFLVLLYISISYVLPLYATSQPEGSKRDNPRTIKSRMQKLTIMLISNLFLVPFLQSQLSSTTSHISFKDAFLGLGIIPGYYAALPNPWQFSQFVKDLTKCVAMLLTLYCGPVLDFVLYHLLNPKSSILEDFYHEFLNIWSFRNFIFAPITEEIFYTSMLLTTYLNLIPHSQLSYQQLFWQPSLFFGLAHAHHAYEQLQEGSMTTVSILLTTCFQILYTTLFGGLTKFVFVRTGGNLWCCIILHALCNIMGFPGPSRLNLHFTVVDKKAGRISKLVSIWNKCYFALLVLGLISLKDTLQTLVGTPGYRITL

[17] = Luminescence Cell-Based Dose Response HTS to Identify Activators of Luciferase Translation or Activity in H4 […] Cells. [Related pubchem assays: 1829 (Project Summary), 1814 (Primary HTS)]; type: functional
H4 = assay: Luminescence Cell-Based Dose Response HTS to Identify Activators of 5'UTR Stem-Loop Driven Prion Protein mRNA Translation in H4 Neuroglioblastoma Cells. [Related pubchem assays: 1829 (Project Summary), 1814 (Primary HTS)]; type: functional; details: Homo sapiens
[18] = Luminescence Cell-Based Dose Confirmation HTS to Identify Activators of 5'UTR Stem-Loop Driven Alpha-Synuclein mRNA Translation in H4 Neuroglioblastoma Cells. [Related pubchem assays: 1829 (Project Summary), 1814 (Primary HTS)]; type: functional
[19] = target: T7, Tyrosine-protein phosphatase non-receptor type 7 (Homo sapiens, UniProt P35236); assay: inhibition of hematopoietic tyrosine phosphatase HePTP – biochemical, set 2, SAR follow-up (AID 449736); type: functional
T7 sequence (P35236 whole entry): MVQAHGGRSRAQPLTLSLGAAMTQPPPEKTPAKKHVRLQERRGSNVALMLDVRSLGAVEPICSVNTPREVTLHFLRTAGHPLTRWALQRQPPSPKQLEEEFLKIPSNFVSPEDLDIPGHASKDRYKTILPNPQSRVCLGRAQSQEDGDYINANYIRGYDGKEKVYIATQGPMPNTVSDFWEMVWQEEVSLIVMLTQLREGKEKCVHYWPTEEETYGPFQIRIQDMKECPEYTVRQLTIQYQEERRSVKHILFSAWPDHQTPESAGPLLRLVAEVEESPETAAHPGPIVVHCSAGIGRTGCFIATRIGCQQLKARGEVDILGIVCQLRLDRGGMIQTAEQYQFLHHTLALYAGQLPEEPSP

[20] = target: T8, Corticotropin-releasing factor receptor 2/Corticotropin-releasing factor-binding protein (Homo sapiens, UniProt P24387+Q13324); assay: Dose Response confirmation of uHTS hits for small molecule antagonists of the CRF-binding protein and CRF-R2 receptor complex.; type: functional; details: read-out: IC50_Mean
T8 sequence (Q13324 whole entry): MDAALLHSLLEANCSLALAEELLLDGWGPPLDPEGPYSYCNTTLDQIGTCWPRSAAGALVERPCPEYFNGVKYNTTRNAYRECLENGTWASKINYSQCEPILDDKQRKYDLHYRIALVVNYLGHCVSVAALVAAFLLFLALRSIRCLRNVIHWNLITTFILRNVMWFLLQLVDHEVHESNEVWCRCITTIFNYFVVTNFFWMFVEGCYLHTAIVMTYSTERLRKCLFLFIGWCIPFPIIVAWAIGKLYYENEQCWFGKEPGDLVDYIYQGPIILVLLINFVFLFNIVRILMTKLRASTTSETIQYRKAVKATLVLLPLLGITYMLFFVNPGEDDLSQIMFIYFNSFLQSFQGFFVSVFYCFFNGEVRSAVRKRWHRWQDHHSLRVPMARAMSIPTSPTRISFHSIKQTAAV
T8 sequence (P24387 whole entry): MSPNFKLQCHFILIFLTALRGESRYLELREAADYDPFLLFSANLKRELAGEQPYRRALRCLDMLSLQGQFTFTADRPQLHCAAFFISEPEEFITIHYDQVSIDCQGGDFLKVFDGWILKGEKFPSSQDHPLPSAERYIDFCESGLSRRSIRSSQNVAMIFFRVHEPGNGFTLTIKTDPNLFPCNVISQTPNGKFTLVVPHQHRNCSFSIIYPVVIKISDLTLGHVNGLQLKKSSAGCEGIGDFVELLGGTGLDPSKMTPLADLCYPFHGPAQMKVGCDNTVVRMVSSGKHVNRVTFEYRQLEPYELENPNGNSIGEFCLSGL

[21] = target: T8, Corticotropin-releasing factor receptor 2/Corticotropin-releasing factor-binding protein; assay: activators of CRF receptor 2 with binding protein – uHTS hits, confirmation (AID 602473); type: functional; details: read-out: EC50_Mean
[22] = target: T9, Microphthalmia-associated transcription factor (Homo sapiens, UniProt O75030); assay: reducers of TRPM1 reporter luminescence, concentration series – cell-based, SK-MEL-5, cherry-picked, set 3, MITF inhibitor project, dose response (AID 493073); type: functional;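 also: SK-MEL-5 melanoma cells with luciferase driven by the MITF target TRPM1 promoter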
T9 sequence (O75030 whole entry): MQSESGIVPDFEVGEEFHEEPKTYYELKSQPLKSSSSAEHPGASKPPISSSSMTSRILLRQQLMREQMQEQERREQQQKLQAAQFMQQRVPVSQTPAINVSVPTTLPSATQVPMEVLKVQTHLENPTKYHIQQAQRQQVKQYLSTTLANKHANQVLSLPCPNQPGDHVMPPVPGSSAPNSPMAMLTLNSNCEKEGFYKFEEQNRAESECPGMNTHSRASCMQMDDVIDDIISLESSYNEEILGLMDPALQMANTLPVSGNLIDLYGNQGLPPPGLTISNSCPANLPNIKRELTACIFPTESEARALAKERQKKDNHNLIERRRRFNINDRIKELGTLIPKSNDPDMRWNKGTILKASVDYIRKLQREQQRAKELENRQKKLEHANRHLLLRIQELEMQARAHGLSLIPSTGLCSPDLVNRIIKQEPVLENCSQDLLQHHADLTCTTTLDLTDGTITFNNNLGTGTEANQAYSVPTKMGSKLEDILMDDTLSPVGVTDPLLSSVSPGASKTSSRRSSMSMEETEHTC

Nonstructural protein 1 = Nonstructural protein 1 (Influenza A virus, UniProt Q194T2); type: functional, Influenza A virus (A/California/07/2009(H1N1))

T2 sequence (P41145 whole entry): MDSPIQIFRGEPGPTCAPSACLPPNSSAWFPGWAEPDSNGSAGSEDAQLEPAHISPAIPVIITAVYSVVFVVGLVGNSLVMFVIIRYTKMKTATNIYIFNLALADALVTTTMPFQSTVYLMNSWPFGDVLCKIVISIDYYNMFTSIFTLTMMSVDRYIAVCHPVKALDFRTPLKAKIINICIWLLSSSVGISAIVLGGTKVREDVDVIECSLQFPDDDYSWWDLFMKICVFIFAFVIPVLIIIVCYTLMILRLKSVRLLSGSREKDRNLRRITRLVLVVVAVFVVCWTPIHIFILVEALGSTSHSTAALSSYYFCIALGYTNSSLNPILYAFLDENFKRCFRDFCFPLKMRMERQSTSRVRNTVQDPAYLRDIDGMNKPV
T1 sequence (Q00975 whole entry): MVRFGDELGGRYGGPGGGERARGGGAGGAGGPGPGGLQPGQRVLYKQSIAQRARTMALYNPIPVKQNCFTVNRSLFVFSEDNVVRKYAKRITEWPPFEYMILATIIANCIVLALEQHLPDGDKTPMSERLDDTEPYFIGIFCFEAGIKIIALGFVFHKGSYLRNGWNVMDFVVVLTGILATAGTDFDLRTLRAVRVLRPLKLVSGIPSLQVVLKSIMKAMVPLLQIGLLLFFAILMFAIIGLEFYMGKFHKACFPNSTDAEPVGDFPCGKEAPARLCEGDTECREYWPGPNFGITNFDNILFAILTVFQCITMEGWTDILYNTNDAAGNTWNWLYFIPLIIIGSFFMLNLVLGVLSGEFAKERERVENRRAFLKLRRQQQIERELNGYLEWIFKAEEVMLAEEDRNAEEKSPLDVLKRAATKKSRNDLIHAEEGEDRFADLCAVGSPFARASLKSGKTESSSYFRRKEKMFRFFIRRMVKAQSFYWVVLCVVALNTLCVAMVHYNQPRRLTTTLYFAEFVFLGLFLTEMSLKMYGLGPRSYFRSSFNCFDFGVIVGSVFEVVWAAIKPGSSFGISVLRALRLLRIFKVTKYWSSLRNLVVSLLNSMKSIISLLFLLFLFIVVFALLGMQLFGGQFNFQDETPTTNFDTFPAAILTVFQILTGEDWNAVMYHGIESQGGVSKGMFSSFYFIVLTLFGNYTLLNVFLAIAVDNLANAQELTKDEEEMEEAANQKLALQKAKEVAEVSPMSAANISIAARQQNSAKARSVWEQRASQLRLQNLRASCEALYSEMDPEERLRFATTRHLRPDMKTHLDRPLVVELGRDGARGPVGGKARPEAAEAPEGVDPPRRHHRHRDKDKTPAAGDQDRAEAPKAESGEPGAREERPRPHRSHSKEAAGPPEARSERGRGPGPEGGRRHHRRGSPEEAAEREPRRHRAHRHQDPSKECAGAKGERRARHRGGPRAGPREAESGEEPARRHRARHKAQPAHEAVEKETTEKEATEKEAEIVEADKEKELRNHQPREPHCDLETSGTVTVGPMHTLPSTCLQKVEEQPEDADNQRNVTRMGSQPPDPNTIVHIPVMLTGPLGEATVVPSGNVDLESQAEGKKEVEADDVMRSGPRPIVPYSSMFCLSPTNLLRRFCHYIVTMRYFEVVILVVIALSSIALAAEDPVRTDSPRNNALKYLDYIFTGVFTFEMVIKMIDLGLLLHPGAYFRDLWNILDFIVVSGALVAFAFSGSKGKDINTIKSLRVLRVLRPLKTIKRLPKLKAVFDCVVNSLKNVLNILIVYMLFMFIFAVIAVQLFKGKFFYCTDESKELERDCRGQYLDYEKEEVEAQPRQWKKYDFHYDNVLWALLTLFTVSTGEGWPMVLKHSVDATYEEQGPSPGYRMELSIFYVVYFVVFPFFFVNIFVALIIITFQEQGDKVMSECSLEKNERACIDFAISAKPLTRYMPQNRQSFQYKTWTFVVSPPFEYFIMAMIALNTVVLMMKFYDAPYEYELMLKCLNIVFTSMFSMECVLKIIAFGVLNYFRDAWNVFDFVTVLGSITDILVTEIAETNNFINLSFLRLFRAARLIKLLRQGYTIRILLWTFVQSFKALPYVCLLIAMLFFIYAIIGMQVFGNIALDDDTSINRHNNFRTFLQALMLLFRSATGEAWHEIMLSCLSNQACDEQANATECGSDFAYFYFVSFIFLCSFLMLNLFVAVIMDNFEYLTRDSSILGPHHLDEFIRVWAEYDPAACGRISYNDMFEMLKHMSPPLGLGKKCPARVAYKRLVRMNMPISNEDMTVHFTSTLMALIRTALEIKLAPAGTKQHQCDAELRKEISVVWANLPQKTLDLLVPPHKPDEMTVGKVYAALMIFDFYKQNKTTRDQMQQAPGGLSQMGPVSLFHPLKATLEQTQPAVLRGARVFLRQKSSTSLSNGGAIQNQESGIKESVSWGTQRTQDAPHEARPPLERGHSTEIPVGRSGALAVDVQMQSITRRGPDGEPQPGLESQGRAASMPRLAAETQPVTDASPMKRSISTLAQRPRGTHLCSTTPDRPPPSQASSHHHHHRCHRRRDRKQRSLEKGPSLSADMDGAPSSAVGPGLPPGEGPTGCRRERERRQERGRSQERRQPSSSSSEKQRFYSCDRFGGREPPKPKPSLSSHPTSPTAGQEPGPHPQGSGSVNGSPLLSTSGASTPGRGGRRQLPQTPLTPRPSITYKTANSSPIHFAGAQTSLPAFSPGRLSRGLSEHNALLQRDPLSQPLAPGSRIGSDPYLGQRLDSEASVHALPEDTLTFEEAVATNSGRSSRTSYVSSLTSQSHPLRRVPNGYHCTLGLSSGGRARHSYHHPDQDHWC
T1 sequence (Q02410 whole entry): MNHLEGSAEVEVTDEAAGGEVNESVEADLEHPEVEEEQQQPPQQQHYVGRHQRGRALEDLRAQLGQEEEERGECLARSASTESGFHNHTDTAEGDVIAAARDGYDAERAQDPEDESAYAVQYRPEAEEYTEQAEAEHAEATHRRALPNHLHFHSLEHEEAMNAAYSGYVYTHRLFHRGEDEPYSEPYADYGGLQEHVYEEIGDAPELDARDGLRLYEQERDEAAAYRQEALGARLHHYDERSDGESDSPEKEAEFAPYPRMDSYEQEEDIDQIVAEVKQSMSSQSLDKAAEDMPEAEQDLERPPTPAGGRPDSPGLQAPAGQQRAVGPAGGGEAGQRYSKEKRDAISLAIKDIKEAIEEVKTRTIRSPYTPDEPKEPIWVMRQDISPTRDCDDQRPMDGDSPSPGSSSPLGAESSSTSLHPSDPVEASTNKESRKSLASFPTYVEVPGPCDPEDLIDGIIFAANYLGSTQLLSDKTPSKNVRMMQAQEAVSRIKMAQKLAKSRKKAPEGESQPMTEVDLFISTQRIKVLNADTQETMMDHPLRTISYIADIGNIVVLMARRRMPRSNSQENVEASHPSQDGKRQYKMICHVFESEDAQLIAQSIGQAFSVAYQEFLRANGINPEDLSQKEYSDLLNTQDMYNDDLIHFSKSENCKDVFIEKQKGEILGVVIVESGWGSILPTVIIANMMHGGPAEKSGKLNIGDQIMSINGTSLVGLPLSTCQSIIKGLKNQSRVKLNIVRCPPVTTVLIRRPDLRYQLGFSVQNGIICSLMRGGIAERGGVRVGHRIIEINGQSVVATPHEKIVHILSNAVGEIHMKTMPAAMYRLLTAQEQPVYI
Alkaline phosphatase, placental type, sequence (P05187 whole entry): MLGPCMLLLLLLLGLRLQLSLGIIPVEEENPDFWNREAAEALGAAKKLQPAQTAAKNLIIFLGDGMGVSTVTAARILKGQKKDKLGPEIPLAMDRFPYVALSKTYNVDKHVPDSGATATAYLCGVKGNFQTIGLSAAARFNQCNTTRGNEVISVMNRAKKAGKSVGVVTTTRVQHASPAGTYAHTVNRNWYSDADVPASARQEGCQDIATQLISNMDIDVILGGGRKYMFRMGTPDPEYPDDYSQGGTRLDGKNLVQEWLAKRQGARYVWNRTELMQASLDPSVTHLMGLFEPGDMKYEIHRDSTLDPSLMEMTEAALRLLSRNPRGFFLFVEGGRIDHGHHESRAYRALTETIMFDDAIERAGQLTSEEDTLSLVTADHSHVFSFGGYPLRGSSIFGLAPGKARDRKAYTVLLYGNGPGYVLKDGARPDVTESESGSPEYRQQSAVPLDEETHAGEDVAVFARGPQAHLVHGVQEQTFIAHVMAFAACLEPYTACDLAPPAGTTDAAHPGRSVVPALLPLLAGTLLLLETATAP
Beta-galactosidase, sequence (Q8VNN2 whole entry): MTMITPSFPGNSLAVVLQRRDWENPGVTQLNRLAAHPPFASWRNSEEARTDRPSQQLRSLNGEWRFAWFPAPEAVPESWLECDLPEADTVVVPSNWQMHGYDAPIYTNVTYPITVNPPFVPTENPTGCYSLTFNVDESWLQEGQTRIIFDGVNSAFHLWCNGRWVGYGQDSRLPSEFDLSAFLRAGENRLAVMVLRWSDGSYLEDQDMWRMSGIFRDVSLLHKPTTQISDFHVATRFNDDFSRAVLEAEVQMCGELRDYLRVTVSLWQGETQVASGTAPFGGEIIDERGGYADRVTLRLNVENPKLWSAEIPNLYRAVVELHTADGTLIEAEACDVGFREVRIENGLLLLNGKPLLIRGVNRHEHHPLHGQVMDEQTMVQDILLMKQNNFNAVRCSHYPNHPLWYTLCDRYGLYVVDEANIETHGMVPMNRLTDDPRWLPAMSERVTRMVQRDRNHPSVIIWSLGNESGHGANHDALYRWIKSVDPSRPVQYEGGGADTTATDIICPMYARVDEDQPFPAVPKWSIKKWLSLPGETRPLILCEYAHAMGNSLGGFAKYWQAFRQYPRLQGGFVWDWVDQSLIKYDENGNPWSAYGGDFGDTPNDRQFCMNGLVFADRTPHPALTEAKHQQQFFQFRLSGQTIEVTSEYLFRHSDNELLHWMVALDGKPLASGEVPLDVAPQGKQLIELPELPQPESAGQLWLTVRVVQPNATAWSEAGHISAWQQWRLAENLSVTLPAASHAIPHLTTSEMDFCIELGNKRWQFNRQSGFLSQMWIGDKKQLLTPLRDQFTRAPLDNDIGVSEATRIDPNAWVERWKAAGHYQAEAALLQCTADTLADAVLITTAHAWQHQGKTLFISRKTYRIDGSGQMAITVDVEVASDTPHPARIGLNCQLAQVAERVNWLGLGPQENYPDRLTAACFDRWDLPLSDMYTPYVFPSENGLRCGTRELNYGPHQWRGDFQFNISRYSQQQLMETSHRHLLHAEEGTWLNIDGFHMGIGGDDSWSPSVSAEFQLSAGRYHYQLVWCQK

For `COc1cc(NC(=O)c2cccs2)ccc1NC(=O)c1cc2ccccc2o1`, the IC50 [1] was > 50 µM (inactive) and the IC50 [2] was 11.2 µM (active).

For `O=S(=O)(Nc1cccc2cccnc12)c1ccc(S(=O)(=O)N2CCCC2)cc1`, the AC50 [3] was 110 µM (active), the IC50 [4] was 8.52 µM (active) and the EC50 [5] was > 32 µM (inactive). For the same compound, the EC50 (Mu-type opioid receptor) was > 32 µM (inactive), the IC50 [6] was > 32 µM (inactive) and the EC50 [7] was 4.29 µM (active). The EC50 (Beta-galactosidase) was > 31.5 µM (inactive), the EC50 [8] was 5.05 µM (active) and the EC50 [9] was 17.2 µM (active). For the same compound, the EC50 [10] was 2.33 µM (active) and the IC50 [11] was over 32 µM.

With `COc1ccc(/C=C/c2nnc(NC(=O)CSc3ccc(C)cc3)s2)cc1` the IC50 (SUMO-activating enzyme) was > 100 µM (inactive) and the CC50 [12] was > 40 µM (active).

For `CC1CN(Cc2c(O)ccc3c2oc(=O)c2ccccc23)CC(C)O1` (stereo not drawn), the IC50 [13] was 2.68 µM (active), the IC50 [14] was 3.06 µM (not active) and the AC50 [15] was 0.95 µM (active).

With `Cc1cccc2nc(CSc3nc4ccccc4[nH]3)cn12` the IC50 [16] was > 100 µM (inactive).

For `COC(=O)c1ccc(CSc2nc(O)c3c(C)c(C(=O)O)sc3n2)cc1`, the AC50 [15] was 10.6 µM (active).

With `NC(=O)c1nsc(C(=O)N(c2ccccc2F)C(C(=O)NCc2ccccc2)c2ccc(O)cc2)c1N` (stereo not drawn) the AC50 (Trypsin) was 12 µM (active), the IC50 (H9c2) was > 79 µM (inactive) and the AC50 (CAAX prenyl protease 2) was 13.8 µM (active).

In the case of `NC1=C(c2nc(-c3ccc(Cl)cc3)cs2)C(=O)CN1NC(=O)c1ccc(O)cc1`, the EC50 [17] is reported as 9.72 µM (active), the IC50 [1] is reported as > 50 µM (inactive) and the EC50 (H4) is reported as 94.6 µM (active). The EC50 [18] was > 120 µM (not active) and the IC50 [2] was 7.51 µM (active).

For `NC1(C(Cl)(Cl)Cl)Oc2cc(Cl)c(Cl)cc2O1`, the IC50 [16] was > 100 µM (inactive).

For `NS(=O)(=O)c1ccc(NC(=S)NC2CCN(Cc3ccccc3)CC2)cc1`, the IC50 [19] was > 100 µM (inactive).

In the case of `O=C(CC1SC(N/N=C/C=C/c2ccccc2)=NC1=O)Nc1ccc(Cl)c(Cl)c1` (stereo not drawn), the IC50 [20] is reported as > 47.1 µM (inactive), the IC50 (SUMO-activating enzyme) is reported as 34.6 µM (active) and the EC50 [21] is reported as > 53 µM (inactive).

With `C/C(=N\NC(=O)C1COc2ccccc2O1)c1ccccn1` (stereo not drawn) the AC50 [22] was 4.49 µM (active), the IC50 [4] was 6.93 µM (active) and the EC50 (Beta-galactosidase) was > 31.5 µM (inactive). For the same compound, the IC50 [11] was over 32 µM and the IC50 (Nonstructural protein 1) was 5.62 µM (active).
